From ChEMBL document CHEMBL4308851, “Alkyl-guanidine Compounds as Potent Broad-Spectrum Antibacterial Agents: Chemical Library Extension and Biological Characterization” (J Med Chem, 2018)
Values after ≈ are worked out from the molar mass of the structure shown. Active and inactive are the calls of the source. The calls are words filed in the database; no cut-off is given here.

Assays:
Escherichia coli [1] = assay: Antibacterial activity against Escherichia coli CCUG deficient in potA gene; type: functional, organism-based
Escherichia coli [2] = assay: Antibacterial activity against Escherichia coli CCUG deficient in potB gene; type: functional, organism-based
Bacillus spizizenii = assay: Antibacterial activity against Bacillus subtilis ATCC 6633 after 18 hrs by microdilution broth method; type: functional; conditions: ATCC 6633, 18 h
Enterococcus faecalis = assay: Antibacterial activity against Enterococcus faecalis ATCC 19433 after 18 hrs by microdilution broth method; type: functional; conditions: ATCC 19433, 18 h
Staphylococcus aureus = assay: Antibacterial activity against Staphylococcus aureus ATCC 25923 after 18 hrs by microdilution broth method; type: functional; conditions: ATCC 25923, 18 h
Streptococcus pyogenes = assay: Antibacterial activity against Streptococcus pyogenes ATCC 12344 after 18 hrs by microdilution broth method; type: functional; conditions: ATCC 12344, 18 h
Acinetobacter baumannii [3] = assay: Antibacterial activity against Acinetobacter baumannii ATCC 17978 after 18 hrs by microdilution broth method; type: functional; conditions: ATCC 17978, 18 h
Klebsiella pneumoniae [4] = assay: Antibacterial activity against Klebsiella pneumoniae ATCC […] after 18 hrs by microdilution broth method; type: functional
Pseudomonas aeruginosa [5] = assay: Antibacterial activity against Pseudomonas aeruginosa ATCC 27853 after 18 hrs by microdilution broth method; type: functional; conditions: ATCC 27853, 18 h
Acinetobacter baumannii [6] = assay: Antibacterial activity against Acinetobacter baumannii isolate AC-54/97 after 18 hrs by microdilution broth method; type: functional; conditions: isolate AC-54/97, 18 h
Burkholderia cepacia = assay: Antibacterial activity against Burkholderia cepacia isolate SI-R2 after 18 hrs by microdilution broth method; type: functional; conditions: isolate SI-R2, 18 h
Enterobacter cloacae = assay: Antibacterial activity against Enterobacter cloacae isolate VA-417/02 after 18 hrs by microdilution broth method; type: functional; conditions: isolate VA-417/02, 18 h
Klebsiella pneumoniae [7] = assay: Antibacterial activity against Klebsiella pneumoniae isolate SI-081 after 18 hrs by microdilution broth method; type: functional; conditions: isolate SI-081, 18 h
[8] = test system: Stenotrophomonas maltophilia; assay: Antibacterial activity against Stenotrophomonas maltophilia isolate 634/08 after 18 hrs by microdilution broth method; type: functional; conditions: isolate 634/08, 18 h
Escherichia coli [9] = assay: Bactericidal activity against Escherichia coli CCUG assessed as log reduction in CFU at 2 times MIC concentration after 1 hr by time kill assay; type: functional
Escherichia coli [10] = assay: Antibacterial activity against Escherichia coli MG1655 cultured in MHB supplemented with 10% human serum assessed as reduction in bacterial growth at 1 ug/ml after 24 hrs; type: functional, organism-based; conditions: K-12 substr. MG1655
Escherichia coli [11] = assay: Ratio of MIC for Escherichia coli MG1655 cultured in MHB supplemented with 10% human serum after 24 hrs to MIC for Escherichia coli MG1655 cultured in absence of 10% human serum; type: functional, K-12 substr. MG1655
Escherichia coli [12] = assay: Antibacterial activity against Escherichia coli MG1655 cultured in MHB supplemented with 5 to 40 mg/ml at 1 to 2 ug/ml after 24 hrs; type: functional, organism-based; conditions: K-12 substr. MG1655
Escherichia coli [13] = assay: Disruption of inner membrane integrity in Escherichia coli MG1655 assessed as induction of […] conversion at 256 ug/ml measured at 10 mins intervals for 1 hr; type: functional, organism-based; conditions: K-12 substr. MG1655
Pseudomonas aeruginosa [14] = assay: Disruption of inner membrane integrity in Pseudomonas aeruginosa PAO1 ATCC 15692 co-expressing pMP2200::PrrnB plasmid assessed as induction of OPNG conversion at 256 ug/ml measured at 10 mins intervals for 1 hr; type: functional, organism-based
Acinetobacter baumannii [15] = assay: Disruption of inner membrane integrity in Acinetobacter baumannii ATCC 19606 co-expressing pMP2200::PrrnB plasmid assessed as induction of […] conversion at 256 ug/ml measured at 10 mins intervals for 1 hr; type: functional, organism-based; conditions: ATCC 19606 = CIP 70.34 = JCM 6841
Escherichia coli [16] = assay: Disruption of Escherichia coli MG1655 ATCC 47076 outer membrane integrity assessed as induction of NPN uptake after 30 mins by NPN fluorescence-based assay; type: functional, organism-based; conditions: K-12 substr. MG1655 ATCC 47076
Pseudomonas aeruginosa [17] = assay: Disruption of Pseudomonas aeruginosa PAO1 ATCC 15692 outer membrane integrity assessed as induction of NPN uptake after 30 mins by NPN fluorescence-based assay; type: functional, organism-based
Acinetobacter baumannii [18] = assay: Disruption of Acinetobacter baumannii ATCC 19606 outer membrane integrity assessed as induction of NPN uptake after 30 mins by NPN fluorescence-based assay; type: functional, organism-based; conditions: ATCC 19606 = CIP 70.34 = JCM 6841
Escherichia coli [19] = assay: Antibiofilm activity against Escherichia coli MG1655 ATCC 47076 at half MIC concentration after 24 hrs by crystal violet-based assay; type: functional, organism-based; conditions: K-12 substr. MG1655 ATCC 47076
Pseudomonas aeruginosa [20] = assay: Antibiofilm activity against Pseudomonas aeruginosa PAO1 ATCC 15692 at half MIC concentration after 24 hrs by crystal violet-based assay; type: functional, organism-based
Acinetobacter baumannii [21] = assay: Antibiofilm activity against Acinetobacter baumannii ATCC 19606 at half MIC concentration after 24 hrs by crystal violet-based assay; type: functional, organism-based; conditions: ATCC 19606 = CIP 70.34 = JCM 6841
Escherichia coli [22] = assay: Antibiofilm activity against Escherichia coli MG1655 ATCC 47076 assessed as effect on biofilm 3D structures at half MIC concentration after 24 hrs by AO-staining based confocal microscopy; type: functional, organism-based; conditions: K-12 substr. MG1655 ATCC 47076
Pseudomonas aeruginosa [23] = assay: Antibiofilm activity against Pseudomonas aeruginosa PAO1 ATCC 15692 assessed as effect on biofilm 3D structures at half MIC concentration after 24 hrs by AO-staining based confocal microscopy; type: functional, organism-based
Acinetobacter baumannii [24] = assay: Antibiofilm activity against Acinetobacter baumannii ATCC 19606 assessed as effect on biofilm 3D structures at half MIC concentration after 24 hrs by AO-staining based confocal microscopy; type: functional, organism-based; conditions: ATCC 19606 = CIP 70.34 = JCM 6841
[25] = Hemolytic activity against human erythrocytes assessed as induction of hemolysis at 64 ug/ml after 30 mins; type: cell-based, Erythrocyte; conditions: read-out: Activity
HeLa [26] = assay: Cytotoxicity against human HeLa cells assessed as reduction in cell viability at 16 ug/ml after 24 hrs by celltox green-based assay
HeLa [27] = assay: Cytotoxicity against human HeLa cells assessed as reduction in cell viability at 256 ug/ml after 24 hrs by celltox green-based assay relative to control
[28] = Metabolic stability in human liver microsomes at 50 uM after 60 mins in presence of NADPH by LC-UV-MS analysis; type: ADME, Microsome; conditions: read-out: Stability
[29] = 1-Octanol/Tris buffer distribution coefficient, log D of the compound at pH 7.4 by HPLC analysis; type: physicochemical
Albumin [30] = biological target: T1, Albumin (Homo sapiens, UniProt P02768); assay: Binding affinity to human serum albumin assessed as dissociation constant after 30 mins by fluorescence-based assay; type: ADME
Albumin [31] = biological target: T1, Albumin; assay: Binding affinity to human serum albumin assessed as Bmax after 30 mins by fluorescence-based assay; type: ADME; conditions: isolated protein, 0.5 h
[32] = Binding affinity to AGP (unknown origin) assessed as dissociation constant after 30 mins by fluorescence-based assay; type: ADME, Homo sapiens
[33] = Binding affinity to AGP (unknown origin) assessed as Bmax after 30 mins by fluorescence-based assay; type: ADME; conditions: human, isolated protein, 0.5 h
[34] = Apparent permeability of the compound after 5 hrs by PAMPA; type: ADME
Escherichia coli [35] = assay: Antibacterial activity against Escherichia coli CCUG deficient in potD gene; type: functional, organism-based
Escherichia coli [36] = assay: Antibacterial activity against Escherichia coli CCUG deficient in potE gene; type: functional, organism-based
Escherichia coli [37] = assay: Antibacterial activity against Escherichia coli CCUG deficient in potF gene; type: functional, organism-based
Escherichia coli [38] = assay: Antibacterial activity against Escherichia coli CCUG deficient in potG gene; type: functional, organism-based
Escherichia coli [39] = assay: Antibacterial activity against Escherichia coli CCUG deficient in potH gene; type: functional, organism-based
Escherichia coli [40] = assay: Antibacterial activity against Escherichia coli CCUG deficient in potI gene; type: functional, organism-based
Escherichia coli [41] = assay: Antibacterial activity against Escherichia coli CCUG assessed as inhibition of microbial growth at >32 ug/ml measured up to 48 hrs; type: functional, organism-based
in vitro [42] = conditions: human, Caco-2
Description: Apparent permeability across apical to basolateral side in human Caco2 cells at 10 uM after 120 mins by LC-MS/MS analysis

in vitro [43] = conditions: human, Caco-2; remark: listed apart in the source
Description: Efflux ratio of apparent permeability in human Caco2 cells at 10 uM after 120 mins by LC-MS/MS analysis

Escherichia coli [44] = assay: Antibacterial activity against Escherichia coli CCUG after 18 hrs by microdilution broth method
Escherichia coli [45] = assay: Induction of cytoplasmic membrane depolarization in Escherichia coli at 16 ug/ml by DiSC3-5-fluorescence based assay

T1 sequence (P02768 whole entry): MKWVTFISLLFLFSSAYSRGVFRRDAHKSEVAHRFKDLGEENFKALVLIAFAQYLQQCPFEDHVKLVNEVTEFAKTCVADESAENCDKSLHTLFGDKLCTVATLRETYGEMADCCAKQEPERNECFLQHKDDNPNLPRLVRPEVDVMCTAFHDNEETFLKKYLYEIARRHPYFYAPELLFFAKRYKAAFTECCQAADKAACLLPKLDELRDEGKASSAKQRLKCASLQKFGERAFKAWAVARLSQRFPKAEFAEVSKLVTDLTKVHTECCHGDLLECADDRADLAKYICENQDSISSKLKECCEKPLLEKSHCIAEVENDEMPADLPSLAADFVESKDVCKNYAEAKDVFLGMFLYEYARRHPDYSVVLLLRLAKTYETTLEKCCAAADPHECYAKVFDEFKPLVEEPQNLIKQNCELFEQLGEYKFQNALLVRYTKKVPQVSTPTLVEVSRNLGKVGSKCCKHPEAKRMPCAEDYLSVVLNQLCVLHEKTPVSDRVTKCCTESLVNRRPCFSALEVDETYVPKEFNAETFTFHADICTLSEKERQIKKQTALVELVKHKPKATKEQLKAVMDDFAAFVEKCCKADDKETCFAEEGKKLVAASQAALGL

MIC (Bacillus spizizenii): 0.5 µg/mL (≈ 0.591 µM) | MIC (Enterococcus faecalis): 2 µg/mL (≈ 2.37 µM) | MIC (Staphylococcus aureus): 2 µg/mL (≈ 2.37 µM) | MIC (Streptococcus pyogenes): 1 µg/mL (≈ 1.18 µM) | MIC (Acinetobacter baumannii [3]): 8 µg/mL (≈ 9.46 µM) | MIC (Klebsiella pneumoniae [4]): 2 µg/mL (≈ 2.37 µM) | MIC (Pseudomonas aeruginosa [5]): 8 µg/mL (≈ 9.46 µM) | MIC (Acinetobacter baumannii [6]): 2 µg/mL (≈ 2.37 µM) | MIC (Burkholderia cepacia): 16 µg/mL (≈ 18.9 µM) | MIC (Enterobacter cloacae): 1 µg/mL (≈ 1.18 µM) | MIC (Klebsiella pneumoniae [7]): 2 µg/mL (≈ 2.37 µM) | MIC [8]: 16 µg/mL (≈ 18.9 µM) | remaining at 1 h, 50 µM [28]: > 99% | logD [29]: -0.79 | Kd (Albumin [30]): 23.3 µM | Bmax (Albumin [31]): 14% | Kd [32]: 0.11 µM | Bmax [33]: 30.2% | Papp at 5 h [34]: 1.6 ×10⁻⁶ cm/s | Papp A→B at 2 h, 10 µM (in vitro [42]): 0.19 ×10⁻⁶ cm/s | efflux ratio at 2 h, 10 µM (in vitro [43]): 0.65 | MIC (Escherichia coli [44]): 2 µg/mL (≈ 2.37 µM)
SMILES: N=C(N)NCCCCCCCCN(CCCCCCCCNC(=N)NCC1CC1)C(=O)N(CCCCCCCCNC(=N)N)CCCCCCCCNC(=N)NCC1CC1
Activity (Escherichia coli [1]): Active | Activity (Escherichia coli [2]): Active | Activity (Escherichia coli [9]): >=4 log10CFU/ml | growth inhibition (GI) (Escherichia coli [10]): inactive | Ratio (Escherichia coli [11]): 2 | Activity (Escherichia coli [12]): Active | Activity (Escherichia coli [13]): inactive | Activity (Pseudomonas aeruginosa [14]): inactive | Activity (Acinetobacter baumannii [15]): inactive | Activity (Escherichia coli [16]): Dose-dependent effect | Activity (Pseudomonas aeruginosa [17]): Dose-dependent effect | Activity (Acinetobacter baumannii [18]): Dose-dependent effect | Activity (Escherichia coli [19]): inactive | Activity (Pseudomonas aeruginosa [20]): inactive | Activity (Acinetobacter baumannii [21]): inactive | Activity (Escherichia coli [22]): inactive | Activity (Pseudomonas aeruginosa [23]): inactive | Activity (Acinetobacter baumannii [24]): inactive | hemolysis at 0.5 h, 64 ug/ml [25]: 0 to 7% | Activity (HeLa [26]): Non-Toxic | Activity (HeLa [27]): <= 60% | Activity (Escherichia coli [35]): Active | Activity (Escherichia coli [36]): Active | Activity (Escherichia coli [37]): Active | Activity (Escherichia coli [38]): Active | Activity (Escherichia coli [39]): Active | Activity (Escherichia coli [40]): Active | Activity (Escherichia coli [41]): Active | Activity (Escherichia coli [45]): inactive
